Measured values published in US10988459B2 (priority 2015, dated 2021).
Read-outs that look alike come from different tables or passages of the source.

Target: human RIP1 kinase domain (2-375) (Homo sapiens (Human), UniProt Q13546)
Assay: biochemical
Type: biochemical
Conditions: 50 uM ATP
Procedure: Example 794: RIP1 Kinase Inhibition Assays (Biochemical Assay)
The compounds of the present invention were tested for their capacity to inhibit RIP1K activity as described below.
The ability of the receptor interacting protein kinase (RIPK1) to catalyze the hydrolysis of adenosine-5′-triphosphate (ATP) is monitored using the Transcreener ADP (adenosine-5′-diphosphate) assay (BellBrook Labs). Purified human RIP1 kinase domain (2-375) (50 nM) derived from a baculovirus-infected insect cell expression system is incubated with test compounds for 2 hours in 50 mM Hepes buffer (pH 7.5) containing 30 mM MgCl2, 1 mM dithiothreitol, 50 uM ATP, 0.002% Brij-35, and 0.5% dimethyl sulfoxide (DMSO). […] The tracer bound to the antibody is displaced by the ADP generated during the RIP1K reaction, which causes a decrease in fluorescence polarization that is measured by laser excitation at 633 nm with a FP microplate reader M1000. Fractional activity was plotted against test article concentration. Using Genedata Screener software (Genedata; Basel, Switzerland), the data were fit to the tight-binding apparent inhibition constant (Ki^app) Morrison equation [Williams, J. W. and Morrison, J. F. (1979) The kinetics of reversible tight-binding inhibition. Methods Enzymol 63: 437-67]. The following equation was used to calculate fractional activity and Ki^app:
[formula] where [E]T and [I]T are the total concentrations of active enzyme and test article, respectively.
“Method” in the first column of each table refers to the synthetic method(s) used to prepare each compound as shown in the Examples above. In certain examples, chiral column retention times (min) are provided for certain stereoisomers.

[1] = tight-binding apparent inhibition constant, human RIP1 kinase domain (2-375) 50 nM, 2 hours, read-out: Ki
[2] = human RIP1 kinase domain (2-375), Transcreener ADP assay, 2 hours incubation, read-out: RIP1 Ki
[3] = human RIP1 kinase domain (2-375), 2 hours incubation, Transcreener ADP assay, read-out: RIP1 Ki

Chain of human RIP1 kinase domain (2-375) (Q13546 2-375): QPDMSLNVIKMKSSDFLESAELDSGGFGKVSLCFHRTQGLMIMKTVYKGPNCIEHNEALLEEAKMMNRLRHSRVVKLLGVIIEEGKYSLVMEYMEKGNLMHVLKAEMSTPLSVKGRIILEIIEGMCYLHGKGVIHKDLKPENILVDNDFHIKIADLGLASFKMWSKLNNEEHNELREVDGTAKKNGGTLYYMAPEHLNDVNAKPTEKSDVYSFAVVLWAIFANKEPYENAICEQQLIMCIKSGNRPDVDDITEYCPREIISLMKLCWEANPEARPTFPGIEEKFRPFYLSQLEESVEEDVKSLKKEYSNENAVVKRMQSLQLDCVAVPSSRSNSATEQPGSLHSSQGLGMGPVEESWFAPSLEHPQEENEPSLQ

Compound: C[C@H](c1ccc(F)cc1)n1cnc(C(=O)N[C@H]2CCn3nc(C4CC4)cc3N(C)C2=O)n1 (racemic) [Example 676, N-[rac-(6S)-2-cyclopropyl-4-methyl-5-oxo-7,8-dihydro-6H-pyrazolo[1,5-a][1,3]diazepin-6-yl]-1-[rac-(1R)-1-(4-fluorophenypethyl]-1,2,4-triazole-3-carboxamide]
- Ki [1]: 3100 nM

Compound: COCCNCc1cc2n(n1)CCC(NC(=O)c1ncn(Cc3ccccc3)n1)C(=O)N2C (single isomer, unassigned) [Example 724, 1-benzyl-N-[2-[(2-methoxyethylamino)methyl]-4-methyl-5-oxo-7,8-dihydro-6H-pyrazolo[1,5-a][1,3]diazepin-6-yl]-1,2,4-triazole-3-carboxamide]
- Ki (Table 5, apparent Ki (Morrison tight-binding fit), 50 nM RIP1 kinase domain, 2 hours incubation, read-out: Ki): 598 nM

Compound: O=C(N[C@H]1COc2cc(F)cc(F)c2NC1=O)c1nc2n(n1)[C@H](C(F)(F)F)CC2 [Example 348, (5S)—N-[(3S)-6,8-difluoro-4-oxo-3,5-dihydro-2H-1,5-benzoxazepin-3-yl]-5-(trifluoromethyl)-6,7-dihydro-5H-pyrrolo[1,2-b][1,2,4]triazole-2-carboxamide]
- Ki [1]: 13.8 nM

Compound: CN1C(=O)[C@@H](NC(=O)c2nc3n(n2)[C@H](c2ccccc2F)CC3)COc2ccccc21 [Example 467, (S)-5-(2-fluorophenyl)-N—((S)-5-methyl-4-oxo-2,3,4,5-tetrahydrobenzo[b][1,4]oxazepin-3-yl)-6,7-dihydro-5H-pyrrolo[1,2-b][1,2,4]triazole-2-carboxamide]
- Ki [1]: 57 nM

Compound: CN1C(=O)[C@@H](NC(=O)c2ncn(Cc3ccc(F)c(F)c3)n2)CCn2nc([C@@H]3CC3(F)F)cc21 [Example 321, 1-(3,4-difluorobenzyl)-N—((S)-2-((S)-2,2-difluorocyclopropyl)-4-methyl-5-oxo-5,6,7,8-tetrahydro-4H-pyrazolo[1,5-a][1,3]diazepin-6-yl)-1H-1,2,4-triazole-3-carboxamide]
- Ki [2]: 67 nM

Compound: CN1C(=O)[C@@H](NC(=O)c2n[nH]c3c2CN(CC(F)(F)F)CC3)COc2ccccc21 [Example 5, (S)—N-(5-methyl-4-oxo-2,3,4,5-tetrahydrobenzo[b][1,4]oxazepin-3-yl)-5-(2,2,2-trifluoroethyl)-4,5,6,7-tetrahydro-1H-pyrazolo[4,3-c]pyridine-3-carboxamide]
- Ki (Table 1, apparent Ki (Morrison tight-binding fit), 50 nM RIP1 kinase domain, 2 hours incubation, read-out: RIP1 Ki): 1500 nM

Compound: CN1C(=O)[C@@H](NC(=O)c2nnn3c2CC(c2ccccc2)C3)COc2ccccc21 (stereo partly drawn) [Example 119, N—((S)-5-methyl-4-oxo-2,3,4,5-tetrahydrobenzo[b][1,4]oxazepin-3-yl)-5-phenyl-5,6-dihydro-4H-pyrrolo[1,2-c][1,2,3]triazole-3-carboxamide]
- Ki [3]: 201 nM

Compound: Cc1cc2n(n1)CC[C@H](NC(=O)c1ncn(CC3CCCC3)n1)C(=O)N2C [Example 162, (S)-1-(cyclopentylmethyl)-N-(2,4-dimethyl-5-oxo-5,6,7,8-tetrahydro-4H-pyrazolo[1,5-a][1,3]diazepin-6-yl)-1H-1,2,4-triazole-3-carboxamide]
- Ki [3]: 36.3 nM

Compound: CN1C(=O)[C@@H](NC(=O)c2ncn(Cc3cccc(F)c3)n2)CCn2nc(C3CC3)cc21 [Example 531]
- Ki [1]: 14 nM

Compound: Cc1cc2n(n1)CC[C@H](NC(=O)c1nc3n(n1)CCN3c1ccccc1)C(=O)N2C [Example 636, 4-phenyl-N-[(6S)-2,4-dimethyl-5-oxo-7,8-dihydro-6H-pyrazolo[1,5-a][1,3]diazepin-6-yl]-5,6-dihydroimidazo[1,2-b][1,2,4]triazole-2-carboxamide]
- Ki [1]: 130 nM

Compound: CN1C(=O)C(NC(=O)c2ncn(Cc3ccccc3)n2)CCCn2nccc21 (stereo not drawn) [Example 94, 1-benzyl-N-(4-methyl-5-oxo-4,5,6,7,8,9-hexahydropyrazolo[1,5-a][1,3]diazocin-6-yl)-1H-1,2,4-triazole-3-carboxamide]
- Ki [3]: 92.5 nM

Compound: CN1C(=O)[C@@H](NC(=O)c2ncn(Cc3cccc(F)c3F)n2)CCn2nc([C@@H]3CC3(F)F)cc21 [Example 320, 1-(2,3-difluorobenzyl)-N—((S)-2-((S)-2,2-difluorocyclopropyl)-4-methyl-5-oxo-5,6,7,8-tetrahydro-4H-pyrazolo[1,5-a][1,3]diazepin-6-yl)-1H-1,2,4-triazole-3-carboxamide]
- Ki [2]: 16.4 nM
